EPA's ToxRefDB 2

Columns and labels:
rat [1] = conditions: Combined chronic toxicity/carcinogenicity, sprague dawley, Oral, Feed, dose end: 104 week
rabbit [2] = conditions: Prenatal developmental toxicity study, new zealand white, Oral, Gavage/Intubation, dose end: 19 GD, group: maternal
rabbit [3] = conditions: Prenatal developmental toxicity study, New Zealand White, Oral, Gavage/Intubation, dose end: 19 GD, group: maternal
rat [4] = conditions: Subchronic oral toxicity in rodents, sprague dawley, Gavage/Intubation, dose end: 90 day, group: systemic
rat [5] = conditions: Subchronic inhalation toxicity, sprague dawley, Whole-Body, dose end: 13 week
rabbit [6] = conditions: Prenatal developmental toxicity study, new zealand white, Oral, Gavage/Intubation, dose end: 19 GD, group: maternal; remark: listed apart in the source
rat [7] = conditions: Subchronic dermal toxicity, sprague dawley, Topical, dose end: 91 day
rat [8] = conditions: Neurotoxicity screening battery; sprague dawley; Oral; Feed; dose end: 13 week; group: cannot be grouped; cholinesterase / cholinesterase / cholinesterase / plasma cholinesterase (che) + systemic / in life observation / food consumption / food …
rat [9] = conditions: Prenatal developmental toxicity study, sprague dawley, Oral, Gavage/Intubation, dose end: 15 GD
rat [10] = conditions: Prenatal developmental toxicity study, sprague dawley, Oral, Gavage/Intubation, dose end: 15 GD; remark: listed apart in the source
mouse = conditions: Carcinogenicity, cd1, Oral, Feed, dose end: 78 week, group: systemic
rat [11] = conditions: Prenatal developmental toxicity study, sprague dawley, Oral, Gavage/Intubation, dose end: 15 GD; remark: listed apart in the source
rat [12] = conditions: Subchronic oral toxicity in rodents, sprague dawley, Gavage/Intubation, dose end: 90 day
[13] = group: cholinesterase, cholinesterase / cholinesterase / cholinesterase / erythrocyte cholinesterase (che) + cholinesterase / cholinesterase / cholinesterase / …
[14] = group: cholinesterase, cholinesterase / cholinesterase / cholinesterase / plasma cholinesterase (che)
[15] = group: systemic, systemic / in life observation / body weight / body weight gain
[16] = group: systemic, systemic / in life observation / body weight / body weight gain + systemic / clinical chemistry / cholesterol / cholesterol + systemic / …
[17] = systemic / in life observation / clinical signs / defecation + systemic / in life observation / food consumption / food consumption + …
[18] = systemic / in life observation / body weight / body weight gain + systemic / in life observation / food consumption / food consumption + …
[19] = group: cholinesterase, cholinesterase / cholinesterase / cholinesterase / brain cholinesterase (che)
[20] = group: cholinesterase, cholinesterase / cholinesterase / cholinesterase / brain cholinesterase (che) + cholinesterase / cholinesterase / cholinesterase / …
[21] = group: systemic, systemic / clinical chemistry / glucose / glucose + systemic / clinical chemistry / alanine aminotransferase (alt/sgpt) / alanine …
[22] = reproductive / reproductive performance / resorptions / resorptions + systemic / in life observation / body weight / body weight gain + …
[23] = group: cholinesterase, cholinesterase / cholinesterase / cholinesterase / plasma cholinesterase (che) + cholinesterase / cholinesterase / cholinesterase / …
[24] = group: systemic, systemic / pathology microscopic / skin / hyperkeratosis + systemic / clinical chemistry / calcium / calcium + systemic / clinical chemistry…
[25] = group: systemic, systemic / pathology microscopic / skin / hyperkeratosis + systemic / clinical chemistry / glucose / glucose + systemic / in life …
[26] = group: developmental, developmental / developmental malformation / bone / unossified + systemic / in life observation / body weight / fetal weight
[27] = group: maternal, systemic / in life observation / body weight / body weight gain + systemic / in life observation / food consumption / food consumption + …
[28] = group: developmental, developmental / developmental malformation / bone / incomplete ossification + developmental / developmental malformation / bone / wavy
[29] = group: maternal, systemic / in life observation / body weight / body weight gain
[30] = systemic / pathology microscopic / thyroid gland / vacuolization + systemic / pathology microscopic / thyroid gland / hypertrophy
[31] = systemic / pathology microscopic / thyroid gland / vacuolization + systemic / pathology microscopic / thyroid gland / hypertrophy + systemic…
[32] = group: developmental, developmental / developmental landmark / [other] / [other]
[33] = group: maternal, systemic / in life observation / body weight / body weight gain + systemic / in life observation / clinical signs / salivation + systemic / …
[34] = group: cholinesterase, cholinesterase / cholinesterase / cholinesterase / cholinesterase (che)
[35] = group: systemic, systemic / in life observation / clinical signs / salivation + systemic / pathology gross / liver / misshapen
[36] = group: systemic, systemic / in life observation / clinical signs / salivation + systemic / pathology gross / liver / misshapen + systemic / pathology …

CCCCNC(=O)OCC#CI [3-Iodo-2-propynyl-N-butylcarbamate]
> 200 mg/kg/day: LOAEL (rat [12]; [34])
> 80.1 mg/kg/day: LOAEL (rat [1]; [13])
> 500 mg/kg/day: LOAEL (rat [7]; [23])
≥ 0.54 ppm: NOAEL (rat [5]; [21])
0.0217 ppm: NEL (rat [5]; [20]) | NOAEL (rat [5]; [20]) | NEL (rat [5]; [21])
50 mg/kg/day: LOAEL (rat [4]; systemic / organ weight / liver / relative to body weight) | LEL (rat [4]; systemic / organ weight / liver / relative to body weight + systemic / in life observation / clinical signs / post-dosing rooting in bedding…) | LOAEL (rabbit [6]; systemic / in life observation / body weight / body weight gain + systemic / in life observation / clinical signs / [other] + systemic / in …) | NEL (rat [7]; [24]) | NOAEL (rat [7]; [24]) | LEL (rat [8]) | LOAEL (rat [8]) | NEL (rat [10]; [28]) | NOAEL (rat [10]; [28]) | NEL (rat [10]; [29]) | NOAEL (rat [10]; [29])
20 mg/kg/day: LEL (rabbit [2]; [17]) | NOAEL (rabbit [2]; [17]) | LOAEL (rabbit [3]; systemic / in life observation / body weight / body weight gain + systemic / in life observation / food consumption / food consumption) | LEL (rabbit [3]; [18]) | NEL (rat [4]; systemic / in life observation / clinical signs / post-dosing rooting in bedding + systemic / organ weight / liver / relative to body weight…) | NOAEL (rat [4]; systemic / organ weight / liver / relative to body weight + systemic / in life observation / body weight / body weight gain + systemic / in …) | LEL (rabbit [6]; reproductive / reproductive performance / resorptions / resorptions) | NOAEL (rabbit [6]; [22])
40 mg/kg/day: LOAEL (rabbit [2]; systemic / in life observation / clinical signs / defecation + systemic / pathology gross / stomach / discolored + reproductive / …)
10 mg/kg/day: NEL (rabbit [2]; [17]) | NEL (rabbit [3]; [18]) | NOAEL (rabbit [3]; [18]) | NEL (rat [8]) | NOAEL (rat [8])
≥ 200 mg/kg/day: NOAEL (rat [12]; [34])
500 mg/kg/day: LEL (rat [7]; [23])
20.1 mg/kg/day: LEL (rat [1]; [14]) | LOAEL (rat [1]; [15]) | LEL (rat [1]; [16])
250 mg/kg/day: LEL (rat [9]; [26]) | LOAEL (rat [9]; [26]) | LEL (rat [11]; [32]) | LOAEL (rat [11]; [32])
25 mg/kg/day: NEL (rat [9]; [27]) | NOAEL (rat [9]; [27]) | NEL (rat [11]; [33]) | NOAEL (rat [11]; [33]) | NEL (rat [12]; [34]) | LOAEL (rat [12]; [35]) | LEL (rat [12]; [36])
< 19.8 mg/kg/day: NOAEL (mouse; [30]) | NEL (mouse; [31])
200 mg/kg/day: NEL (rat [7]; [14]) | LEL (rat [7]; [25]) | LOAEL (rat [7]; [25])
125 mg/kg/day: LEL (rat [10]; [28]) | LOAEL (rat [10]; [28]) | LEL (rat [10]; [29]) | LOAEL (rat [10]; [29])
< 25 mg/kg/day: NOAEL (rat [12]; [35]) | NEL (rat [12]; [36])
75 mg/kg/day: NEL (rat [9]; [26]) | NOAEL (rat [9]; [26]) | LOAEL (rat [9]; group: maternal, systemic / in life observation / body weight / body weight gain + systemic / in life observation / food consumption / food consumption) | LEL (rat [9]; [27]) | NEL (rat [11]; [32]) | NOAEL (rat [11]; [32]) | LEL (rat [11]; [33]) | LOAEL (rat [11]; [33]) | LEL (rat [12]; [34])
≥ 500 mg/kg/day: NOAEL (rat [7]; [23])
0.11 ppm: LEL (rat [5]; [19]) | LOAEL (rat [5]; [19]) | LEL (rat [5]; group: systemic, systemic / clinical chemistry / glucose / glucose)
2 mg/kg/day: NEL (rabbit [6]; [22])
≥ 80.1 mg/kg/day: NOAEL (rat [1]; [13])
19.8 mg/kg/day: LOAEL (mouse; [30]) | LEL (mouse; [31])
> 0.54 ppm: LOAEL (rat [5]; [21])
< 20.1 mg/kg/day: NEL (rat [1]; [14]) | NOAEL (rat [1]; [15]) | NEL (rat [1]; [16])
